The source of these data is US20230055237A1, “COMPOUNDS AND METHODS FOR THE TREATMENT OF CYSTIC FIBROSIS” (Flatley Discovery Lab, LLC, priority 2019, published 2023).

Structures are written as SMILES.

The experiment addresses T1, CFTR (Homo sapiens, UniProt P13569, DEL508-508).
T1 construct: Primary CF airway epithelial cells were obtained from the UNC Cystic Fibrosis Tissue Procurement and Cell Culture Core; host or cells: primary CF airway epithelial cells, differentiated at the air-liquid interface
The experiment in a line: Equivalent current assay in primary CF airway epithelial cells (NAUC, combination with 1st site corrector FDL169 or VX-809). The experiment is classed as cell-based. The conditions noted are these: 37° C., 24 h. As for the experimental part:
Primary CF airway epithelial cells were obtained from the UNC Cystic Fibrosis Tissue Procurement and Cell Culture Core. The cells are grown at 37° C. in a Heracell 150i incubator using growth media (BEGM, Fischer). […] Two days before the Ussing assay the mucus on the apical surface of the cells was aspirated after incubating with 200 μL of differentiation media for at least thirty (30) minutes. One day before the Ussing assay test compounds were added to the basolateral surface of the cells at various test concentrations dissolved in DMSO. Duplicate wells were prepared giving a n=3 or n=4 protocol.
Cells were treated for 24 hours with various combinations and concentrations of the test articles, reference standard (3 μM VX809 or 3 μM FDL169, positive control). Compounds stock solutions were prepared in DMSO and diluted 1/1000 into ALI media to their final assay concentration. Cells were treated with combination solutions (2 mL of each dilution) and incubated at 37° C. for 24 h.
For the equivalent current assay, cells on four Transwell (24-well) plates were treated. Each Transwell plate was filled with 200 μl of HBS on the apical surface and 2 ml on the basolateral surface. Plates were placed horizontally in a heated mount at 37° C., and equilibrated for several minutes. Resting current was measured for 15 min and then blocked by the apical addition of 5 μM benzamil. After 20 min, 10 μM forskolin and 1 μM VX770 were added to both the apical and basolateral side to stimulate CFTR. An increase in chloride current is seen as an upward deflection of the trace.
The raw data, current vs. time for the Ussing chamber (sampling interval: 10 s) and voltage vs. time and resistance vs. time for the equivalent current assay (sampling interval: 5 minutes) were transferred to Excel (Microsoft Office Professional, version 14.0.7106.5003) for analysis. […] This average is equivalent to the sum of the average forskolin activated and the average VX770-potentiated currents. The average current measured in vehicle (0.1% DMSO) treated cells, Iv, was subtracted from the current for the test article, ITA, or from the corrector reference standard VX809 (3 uM ISTD). For replicate measurements, the average vehicle subtracted response for the test article, was normalized to the average vehicle subtracted inhibitor response of the reference corrector VX809 (3 μM).
A second endpoint, for the equivalent current assay, evaluated was NAUC, the normalized area under the curve (AUC) measuring the response after addition of forskolin and VX770 to the time point right before the addition of the CFTR inhibitor. The AUC is effectively the average response multiplied by the duration of the response.
NAUCTA=[AUCTA−AUCV,ave]/[AUCVx809r,ave−AUCV,ave] (Equation 2).
Experiments were run with a minimum of n=4 replicates per concentration. Since the distribution for the ratio of two normal distributions is a Cauchy distribution, the median value must be used for the average and the average deviation must be used for the error of all normalized data.
E=Emin+(Emax−Emin)/(1+10^((LogEC5OS)*nH)) (Equation 3)

Setting [1] is: test compound 1 μM in combination with 1st site corrector VX-809 (3 μM).
Setting [2] is: test compound 3 μM in combination with 1st site corrector VX-809 (3 μM).
Where [3] appears, read: test compound 10 μM in combination with 1st site corrector VX-809 (3 μM).
The mark [4] stands for this setting: test compound 1 μM in combination with 1st site corrector FDL169 (3 μM).
Where [5] appears, read: test compound 3 μM in combination with 1st site corrector FDL169 (3 μM).
Setting [6] is: test compound 10 μM in combination with 1st site corrector FDL169 (3 μM).

T1 sequence (P13569 with tags, fused parts or gaps DEL508-508): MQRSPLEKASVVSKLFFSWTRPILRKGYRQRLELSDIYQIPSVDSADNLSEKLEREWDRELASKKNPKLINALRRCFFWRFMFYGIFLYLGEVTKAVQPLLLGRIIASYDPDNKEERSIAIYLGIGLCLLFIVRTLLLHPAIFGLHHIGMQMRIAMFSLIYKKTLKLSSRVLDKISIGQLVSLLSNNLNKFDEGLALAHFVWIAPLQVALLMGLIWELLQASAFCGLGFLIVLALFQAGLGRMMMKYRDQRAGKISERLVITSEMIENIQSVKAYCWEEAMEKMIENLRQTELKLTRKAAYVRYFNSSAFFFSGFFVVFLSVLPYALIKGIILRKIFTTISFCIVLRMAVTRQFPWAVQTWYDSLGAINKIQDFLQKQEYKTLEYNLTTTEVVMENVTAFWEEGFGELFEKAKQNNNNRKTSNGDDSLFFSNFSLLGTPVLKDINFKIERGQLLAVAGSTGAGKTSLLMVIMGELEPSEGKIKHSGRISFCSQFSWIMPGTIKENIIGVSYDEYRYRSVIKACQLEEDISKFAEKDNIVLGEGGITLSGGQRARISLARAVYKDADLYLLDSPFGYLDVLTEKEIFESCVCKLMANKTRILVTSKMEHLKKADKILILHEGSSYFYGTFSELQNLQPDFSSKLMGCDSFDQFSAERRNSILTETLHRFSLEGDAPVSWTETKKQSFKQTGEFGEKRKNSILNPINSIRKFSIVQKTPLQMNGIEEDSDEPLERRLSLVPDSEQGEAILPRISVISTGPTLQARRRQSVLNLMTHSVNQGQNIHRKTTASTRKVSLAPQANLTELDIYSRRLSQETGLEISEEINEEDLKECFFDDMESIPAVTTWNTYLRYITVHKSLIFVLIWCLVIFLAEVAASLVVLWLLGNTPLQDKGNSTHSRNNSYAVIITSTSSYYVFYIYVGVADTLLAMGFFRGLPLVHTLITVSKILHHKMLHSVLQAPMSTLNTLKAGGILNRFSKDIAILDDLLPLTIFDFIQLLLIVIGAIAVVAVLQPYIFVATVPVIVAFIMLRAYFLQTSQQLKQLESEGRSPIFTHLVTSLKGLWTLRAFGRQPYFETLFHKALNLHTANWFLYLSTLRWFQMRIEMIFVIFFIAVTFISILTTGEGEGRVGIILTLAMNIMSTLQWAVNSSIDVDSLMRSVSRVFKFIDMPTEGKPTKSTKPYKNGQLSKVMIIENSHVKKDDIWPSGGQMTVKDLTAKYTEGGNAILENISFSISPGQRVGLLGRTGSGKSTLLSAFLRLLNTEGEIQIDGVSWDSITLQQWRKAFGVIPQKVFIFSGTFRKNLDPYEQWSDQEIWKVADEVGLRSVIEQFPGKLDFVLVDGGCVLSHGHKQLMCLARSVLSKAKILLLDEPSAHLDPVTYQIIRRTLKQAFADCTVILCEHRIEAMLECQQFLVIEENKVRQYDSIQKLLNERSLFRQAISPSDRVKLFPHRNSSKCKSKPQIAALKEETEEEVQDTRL

Consider `COCCN(C(=O)[C@H]1[C@H]2CC(F)(F)CN2[C@]2(C(=O)Nc3c(Cl)cc(Cl)cc32)[C@H]1C(=O)O)c1cc(Cl)cc(Cl)c1` [Example 132], for which, under setting [1], the “Nauc @ 1 μM” value is “+++ (NAUC “+++” refers to an observed NAUC>170% of positive control)”. In addition, the “Nauc @ 3 μM” value under setting [2] was “+++ (NAUC “+++” refers to an observed NAUC>170% of positive control)”. The “Nauc @ 10 μM” value under setting [3] is on record as “+++ (NAUC “+++” refers to an observed NAUC>170% of positive control)”.
Turning to `O=C(Nc1cc(Cl)cc(Cl)c1)C1CN(CC(F)(F)F)C2(C(=O)Nc3c(Cl)cc(Cl)cc32)C1C(=O)O` (stereo not shown) [Example 41], the “Nauc @ 3 μM” value under setting [2] was “+ (NAUC “+” refers to an observed NAUC <140% of positive control)”. Besides, the “Nauc @ 10 μM” value under setting [3] is “++ (NAUC “++” refers to an observed NAUC 170-140% of positive control)”.
For `O=C(Nc1cc(C(F)(F)F)cc(C(F)(F)F)n1)C1C2C[C@@](O)(C(F)(F)F)CN2C2(C(=O)Nc3c(Cl)cc(Cl)cc32)C1C(=O)O` (stereo partly shown) [Example 55] the same measures were “++ (NAUC “++” refers to an observed NAUC 170-140% of positive control)” and “+ (NAUC “+” refers to an observed NAUC <140% of positive control)”.
Regarding `CC(C)(C)C(C)(C)CN(C(=O)[C@H]1[C@H]2C[C@](C)(OCc3ccccc3)CN2[C@]2(C(=O)Nc3c(Cl)cc(Cl)cc32)[C@H]1C(=O)O)c1cc(Cl)cc(Cl)c1` [Example 95], the “Nauc @ 1 μM” value under setting [4] is recorded as “+++ (NAUC “+++” refers to an observed NAUC>170% of positive control)”. The “Nauc @ 3 μM” value under setting [5] is given as “+++ (NAUC “+++” refers to an observed NAUC>170% of positive control)”. Moreover, the “Nauc @ 10 μM” value under setting [6] is reported as “+++ (NAUC “+++” refers to an observed NAUC>170% of positive control)”.
Take `CN(O)C(=O)[C@@H]1[C@@H](C(=O)N(C)c2cc(Cl)cc(Cl)c2)[C@H]2CC(F)(F)CN2[C@]12C(=O)Nc1c(Cl)cc(Cl)cc12` [Example 260b, (1′R,2′R,3R,7a′R)-5,7-dichloro-N1′-(3,5-dichlorophenyl)-6′,6′-difluoro-N2′-hydroxy-N1′,N2′-dimethyl-2-oxo-1′,2′,5′,6′,7′,7a′-hexahydrospiro[indoline-3,3′-pyrrolizine]-1′,2′-dicarboxamide]: the “Nauc @ 1 μM” value under setting [1] is on record as “+ (NAUC “+” refers to an observed NAUC <140% of positive control)”. Besides, under setting [2], the “Nauc @ 3 μM” value is recorded as “+ (NAUC “+” refers to an observed NAUC <140% of positive control)”. Moreover, under setting [3], the “Nauc @ 10 μM” value is “+ (NAUC “+” refers to an observed NAUC <140% of positive control)”.
With `O=C(Nc1cncc(C(F)(F)F)n1)C1C2CC3(CC3)CN2C2(C(=O)Nc3c(Cl)cc(Cl)cc32)C1C(=O)O` (stereo not shown) [Example 2], under setting [2], the “Nauc @ 3 μM” value is recorded as “+ (NAUC “+” refers to an observed NAUC <140% of positive control)”. Also, under setting [3], the “Nauc @ 10 μM” value was “++ (NAUC “++” refers to an observed NAUC 170-140% of positive control)”.
Take `CN(C(=O)[C@H]1[C@H]2CC(F)(F)CN2[C@]2(C(=O)Nc3c(Cl)cc(Cl)cc32)[C@H]1C(=O)NCC(F)(F)F)c1cc(Cl)cc(Cl)c1` (single isomer, unassigned) [Example 232b]: the “Nauc @ 1 μM” value under setting [1] is “+ (NAUC “+” refers to an observed NAUC <140% of positive control)”. Moreover, under setting [2], the “Nauc @ 3 μM” value is on record as “+ (NAUC “+” refers to an observed NAUC <140% of positive control)”. The “Nauc @ 10 μM” value under setting [3] was “+ (NAUC “+” refers to an observed NAUC <140% of positive control)”.
With `O=C(Nc1cc2ccccc2cn1)[C@H]1[C@H]2CC(F)(F)CN2[C@]2(C(=O)Nc3c(Cl)cc(Cl)cc32)[C@H]1C(=O)O` [Example 119], the “Nauc @ 1 μM” value under setting [1] is recorded as “+ (NAUC “+” refers to an observed NAUC <140% of positive control)”. The “Nauc @ 3 μM” value under setting [2] is “+ (NAUC “+” refers to an observed NAUC <140% of positive control)”. Under setting [3], the “Nauc @ 10 μM” value is “+ (NAUC “+” refers to an observed NAUC <140% of positive control)”.
Regarding `O=C(Nc1cc(C(F)(F)F)cc(C(F)(F)F)n1)C1C2CC3(CC3)CN2C2(C(=O)Nc3c(Cl)cc(Cl)cc32)C1C(=O)O` (stereo not shown) [Example 1], under setting [2], the “Nauc @ 3 μM” value is listed as “+++ (NAUC “+++” refers to an observed NAUC>170% of positive control)”. In addition, the “Nauc @ 10 μM” value under setting [3] is “+++ (NAUC “+++” refers to an observed NAUC>170% of positive control)”.
For the compound `C[C@]1(O)CC2C(C(=O)Nc3cc(Cl)cc(Cl)c3)C(C(=O)NS(C)(=O)=O)C3(C(=O)Nc4c(Cl)cc(Cl)cc43)N2C1` (stereo partly drawn) [Example 247, (6′S)-5,7-dichloro-N1′-(3,5-dichlorophenyl)-6′-hydroxy-6′-methyl-N2′-(methylsulfonyl)-2-oxo-1′,2′,5′,6′,7′,7a′-hexahydrospiro[indoline-3,3′-pyrrolizine]-1′,2′-dicarboxamide], the “Nauc @ 1 μM” value under setting [1] is recorded as “+ (NAUC “+” refers to an observed NAUC <140% of positive control)”. Further, the “Nauc @ 3 μM” value under setting [2] is on record as “++ (NAUC “++” refers to an observed NAUC 170-140% of positive control)”. Further, under setting [3], the “Nauc @ 10 μM” value is recorded as “+++ (NAUC “+++” refers to an observed NAUC>170% of positive control)”.
On to `O=C(Nc1cc(C(F)(F)F)ccn1)C1C2CC(F)(F)CN2C2(C(=O)Nc3c(Cl)cc(Cl)cc32)C1C(=O)O` (stereo not shown) [Example 11], for which, under setting [2], the “Nauc @ 3 μM” value was “+++ (NAUC “+++” refers to an observed NAUC>170% of positive control)”. The “Nauc @ 10 μM” value under setting [3] is reported as “++ (NAUC “++” refers to an observed NAUC 170-140% of positive control)”.
Consider `CC(C)N(C(=O)[C@H]1[C@H]2CC(F)(F)CN2[C@]2(C(=O)Nc3c(Cl)cc(Cl)cc32)[C@H]1C(=O)O)c1cc(Cl)cc(Cl)c1` [Example 174], for which, under setting [4], the “Nauc @ 1 μM” value was “+++ (NAUC “+++” refers to an observed NAUC>170% of positive control)”. Besides, under setting [5], the “Nauc @ 3 μM” value is on record as “+++ (NAUC “+++” refers to an observed NAUC>170% of positive control)”. The “Nauc @ 10 μM” value under setting [6] was “+++ (NAUC “+++” refers to an observed NAUC>170% of positive control)”.
With `O=C(Nc1cc(Cl)cc(Cl)c1)[C@H]1[C@H]2CCCN2[C@]2(C(=O)Nc3c(Cl)cc(Cl)cc32)[C@H]1C(=O)NN1CCOCC1` (relative stereo) [Example 243, (1′R,2′S,7a′R)-5,7-dichloro-N1′-(3,5-dichlorophenyl)-N2′-morpholino-2-oxo-1′,2′,5′,6′,7′,7a′-hexahydrospiro dicarboxamide], under setting [1], the “Nauc @ 1 μM” value was “+ (NAUC “+” refers to an observed NAUC <140% of positive control)”. Under setting [2], the “Nauc @ 3 μM” value was “+ (NAUC “+” refers to an observed NAUC <140% of positive control)”.
Take `CC1(C)CC2C(C(=O)Nc3cc(Cl)cc(Cl)c3)C(C(=O)O)C3(C(=O)Nc4c(Cl)cc(Cl)cc43)N2C1` (stereo not shown) [Example 13]: under setting [2], the “Nauc @ 3 μM” value is listed as “+++ (NAUC “+++” refers to an observed NAUC>170% of positive control)”. Also, the “Nauc @ 10 μM” value under setting [3] is recorded as “+++ (NAUC “+++” refers to an observed NAUC>170% of positive control)”.
As to `CN(C(=O)[C@H]1[C@H]2CC(F)(F)CN2[C@]2(C(=O)Nc3c(Cl)cc(Cl)cc32)[C@H]1C(=O)O)c1ccccc1C(F)(F)F` [Example 176], the “Nauc @ 1 μM” value under setting [4] is recorded as “+++ (NAUC “+++” refers to an observed NAUC>170% of positive control)”. Besides, the “Nauc @ 3 μM” value under setting [5] is “+++ (NAUC “+++” refers to an observed NAUC>170% of positive control)”.
Turning to `CN(C(=O)[C@H]1[C@H]2C[C@](C)(OCc3ccccc3)CN2[C@]2(C(=O)Nc3c(Cl)cc(Cl)cc32)[C@H]1C(=O)O)c1cc(Cl)cc(Cl)c1` [Example 92], the “Nauc @ 1 μM” value is, setting by setting: under setting [4], “+ (NAUC “+” refers to an observed NAUC <140% of positive control)”; under setting [1], “++ (NAUC “++” refers to an observed NAUC 170-140% of positive control)”. Further, the “Nauc @ 3 μM” value is “++ (NAUC “++” refers to an observed NAUC 170-140% of positive control)” under setting [5] and “+++ (NAUC “+++” refers to an observed NAUC>170% of positive control)” under setting [2]. Besides, the “Nauc @ 10 μM” value under setting [6] was “+++ (NAUC “+++” refers to an observed NAUC>170% of positive control)” and the “Nauc @ 10 μM” value under setting [3] is reported as “+++ (NAUC “+++” refers to an observed NAUC>170% of positive control)”.
